According to patent US20090099197A1 (priority 2005, published 2009):
“Also recorded” adds a separate entry of the source. Like-named read-outs stand apart in the source and are kept apart here.

How the values were obtained:
[1] = test system: K562/ADM (K562 cells over-expressing MDR-1); experiment: In vitro proliferation/cytotoxicity assay, MDR-1 overexpressing K562/ADM cells; type: cell-based, human; details: for IC50: Homo sapiens
Description: Two cell lines were used: K562 (erythromyeloblastoid CML) and K562/ADM (K562 cells over-expressing MDR-1).
Experiments were performed as described in Example 1 except that K562/ADM cells were used.

[2] = test system: K562 (erythromyeloblastoid CML) cells; experiment: cells; details: Homo sapiens, K562, 72 h
[3] = test system: K562/STI-571/R tumor xenografts; experiment: Tumor response in imatinib-resistant K562/STI-571/R xenograft model; type: in vivo, SCID mice
[4] = test system: K562/ADM tumor xenografts; experiment: Tumor response in SC K562/ADM leukemia xenograft model; type: in vivo, mice; details: QDx14
Description: (B) Activity versus K562/ADM tumor xenografts. Mice were implanted subcutaneously (SC) on Day 0 with K562/ADM. On Day 18 when tumors were at a size range of 100-200 mg, treatment began. […] Experiments were performed as described in Example 3.
Tumors implanted in mouse xenograft models were allowed to grow to a pre-determined size of 100-300 mg (tumors outside the range were excluded) and animals were evenly distributed to treatment and control groups. Treated animals were checked daily for treatment-related toxicity/mortality. […] The difference in body weight (Wt2−Wt1) provides a measure of treatment-related toxicity. Tumor weights (mg) were estimated from the formula: tumor weight=(length×width^2)/2.
Log cell kill was also used as a measure of anti-tumor activity according to the following equation: log cell kill=T−C/(3.32×TVDT). In this equation: T=mean tumor weight at the end of treatment for the treated group; C=mean tumor weight at the end of treatment for the control group; and TVDT=median time (days) for control tumor weight to reach target size−median time (days) for control tumor weight to reach half the target size.
A maximum tolerated dose (MTD), frequently equivalent to the optimal dose, was defined as a dose immediately below that causing unacceptable toxicity (i.e. more than one death) or, in the absence of any deaths, when accompanied by >20% loss of body weight.

[5] = test system: K562 intracranial CML tumor model; experiment: Survival of mice bearing intracranial K562 CML; type: in vivo; details: BIDx10
Description: Extramedullary complications, particular in the CNS, are known risks of Ph+ALL or Ph+CML in lymphoid blast crisis. […] Both drugs were administered orally to mice inoculated intracranially (IC) with K562 cells using a BID×10 treatment schedule.

in vivo = details: SCID, mouse
Description: Concentrations and dosing frequency are as specified in FIG. 4A. […] Experiments were performed as described in Example 4.

intracranial K562 cells = experiment: Bioluminescence imaging of intracranially inoculated K562 cells; type: in vivo, SCID mice; details: 15 mg/kg, 2qdx14, M-F, po
Description: Experiments were performed as described in Example 4.

[6] = test system: K562 (erythromyeloblastoid CML) cells
[7] = test system: K562-R (K562/STI-571/R) imatinib resistant cells
[8] = test system: K562-R (K562/STI-571/R) imatinib resistant cells; experiment: cells; details: Homo sapiens, K-562R
wild-type BCR-ABL = details: cited from earlier work
[9] = test system: imatinib-resistant BCR-ABL mutants; details: cited from earlier work
[10] = K562 cells, 72 hours incubation

With `COc1cccc2c1C(=O)c1c(O)c3c(c(O)c1C2=O)C[C@@](O)(C(=O)CO)C[C@@H]3O[C@H]1C[C@H](N)[C@H](O)[C@H](C)O1` [adriamycin] the IC50 ([1]; K562/ADM cells, read-out: IC50) was 1250 nM, the “fold resistance (IC50 K562/ADM versus K562)” value ([1]; K562/ADM versus parent K562 cells) was 60 fold and the IC50 [2] was 21 nM.

With `Cc1nc(Nc2ncc(C(=O)Nc3c(C)cccc3Cl)s2)cc(N2CCN(CCO)CC2)n1` [dasatinib, N-(2-chloro-6-methylphenyl)-2-[[6-[4-(2-hydroxyethyl)-1-piperazinyl]-2-methyl-4-pyrimidinyl]amino]-5-thiazolecarboxamide] the IC50 ([1]; K562, K562/ADM cells) was roughly 3 nM, the effect on tumor ([3]; dasatinib 5 mg/kg (lowest dose)) was “tumor regressed initially” and the “effect on tumor size” value ([3]; dasatinib, all doses except the lowest tested (5 mg/kg)) was “substantial reductions in tumor size”. For the same compound, the anti-leukemic activity ([4]; 5 mg/kg PO) was “inactive”, the growth delay ([4]; 15 mg/kg PO, P=0.0009) was 16.7 days and the anti-leukemic activity ([4]; 30 mg/kg PO) was “completely eliminated tumors”. The “increase in lifespan (ILS)” value ([5]; 5 mg/kg/adm oral) was 268%, the “increase in lifespan (ILS)” value ([5]; 15 mg/kg/adm oral) was 450% and the Kp (in vivo) was 0.05 to 0.1. The “bioluminescence of intracranial K562 cells after treatment” value (intracranial K562 cells) was “virtually no bioluminescence; also recorded: marked reduction of bioluminescence”, the IC50 [6, 10] was 0.5 nM and the “sensitivity of K562 cells (percent growth inhibition), comparison” value ([6]; dasatinib versus imatinib or AMN107, FIG. 1A) was “significantly more sensitive to dasatinib than either imatinib or AMN107”. For the same compound, the “resistance factor (IC50 K562-R versus K562)” value [7] was 6 fold, the IC50 [2, 10] was 0.7 nM and the IC50 [8] was 4.4 nM.

For `Cc1cn(-c2cc(NC(=O)c3ccc(C)c(Nc4nccc(-c5cccnc5)n4)c3)cc(C(F)(F)F)c2)cn1` [AMN107], the IC50 (wild-type BCR-ABL) is listed as […] and the “imatinib-resistant BCR-ABL mutants/mutations against which active” value [9] is listed as 32/33.

For `Cc1ccc(NC(=O)c2ccc(CN3CCN(C)CC3)cc2)cc1Nc1nccc(-c2cccnc2)n1` [imatinib, reference compound], the effect on tumors ([3]; imatinib 75 and 150 mg/kg three times daily) was “little or no impact”.
